Laboratory results published in US6121326A, “Substituted alkyltetraamine derivatives” (Nippon Zoki Pharmaceutical Co., Ltd., priority 2000, dated 2000).

test system: Substance P; assay: Tachykinin antagonistic action: suppression of substance P-induced contraction of isolated guinea pig ileum; set-up: species or system guinea pig (Hartley strain, male); details: isotonic contraction, substance P 10^-8 M, 10 minutes treatment with test drug
Protocol: The compounds of the present invention were tested by an assay using ileum isolated from guinea pigs. Male guinea pigs of the Hartley strain (400 g to 500 g) were fainted and bled out. Then, ileum was isolated and hung in an organ bath filled with a nutritive solution. After an equilibration for 60 minutes, isotonic contraction was recorded. Substance P, a tachykinin agonist, was administered in a dose of 10^-8 M every 15 minutes. Administration of substance P was repeated for 3 to 4 times and it was confirmed that a contraction height for each run became constant. The constant contraction was used as a control. A treatment with the test drug was carried out for 10 minutes and then substance P was administered again and a concentration vs. action curve was prepared. A 50% suppression concentration (lC50) was determined from the concentration vs. action curve of the test drug. The compound of the present invention was used as a test drug and an example of the result of its antagonistic action to substance P is shown in Table 1: […]

`CC(=O)Oc1ccc(/C=C/C(=O)NCCCN(CCCCN(CCCNC(=O)/C=C/c2ccc(OC(C)=O)cc2)C(=O)/C=C/c2ccc(OC(C)=O)cc2)C(=O)/C=C/c2ccc(OC(C)=O)cc2)cc1` [Compound 1, N1,N5,N10,N14-Tetrakis[3-(4-acetoxyphenyl)-2-propenoyl]tetraazatetradecane] and `O=C(/C=C/c1ccc(O)cc1)NCCCN(CCCCN(CCCNC(=O)/C=C/c1ccc(O)cc1)C(=O)/C=C/c1ccc(O)cc1)C(=O)/C=C/c1ccc(O)cc1` [Compound 2, N1,N5,N10,N14-Tetrakis[3-(4-hydroxyphenyl)-2-propenoyl]tetraazatetradecane] are within 1.5-fold of each other in IC50: 14 nM for the first, 11 nM for the second.

`COc1cc(/C=C/C(=O)NCCCN(CCCCN(CCCNC(=O)/C=C/c2ccc(OC(C)=O)c(OC)c2)C(=O)/C=C/c2ccc(OC(C)=O)c(OC)c2)C(=O)/C=C/c2ccc(OC(C)=O)c(OC)c2)ccc1OC(C)=O` [Compound 3, N1,N5,N10,N14-Tetrakis[3-(4-acetoxy-3-methoxyphenyl)-2-propenoyl]tetraazatetradecane] and `COc1cc(/C=C/C(=O)NCCCN(CCCCN(CCCNC(=O)/C=C/c2ccc(O)c(OC)c2)C(=O)/C=C/c2ccc(O)c(OC)c2)C(=O)/C=C/c2ccc(O)c(OC)c2)ccc1O` [Compound 4, N1,N5,N10,N14-Tetrakis[3-(4-hydroxy-3-methoxyphenyl)-2-propenoyl]tetraazatetradecane] are within 1.5-fold of each other in IC50: 710 nM for the first, 580 nM for the second.
